{"source": "the Kinase Knowledgebase extract (Sharma et al. 2016)"}
{"target": "MAPK14 (human) (UniProt Q16539)", "sequence (Q16539 whole entry, looked up)": "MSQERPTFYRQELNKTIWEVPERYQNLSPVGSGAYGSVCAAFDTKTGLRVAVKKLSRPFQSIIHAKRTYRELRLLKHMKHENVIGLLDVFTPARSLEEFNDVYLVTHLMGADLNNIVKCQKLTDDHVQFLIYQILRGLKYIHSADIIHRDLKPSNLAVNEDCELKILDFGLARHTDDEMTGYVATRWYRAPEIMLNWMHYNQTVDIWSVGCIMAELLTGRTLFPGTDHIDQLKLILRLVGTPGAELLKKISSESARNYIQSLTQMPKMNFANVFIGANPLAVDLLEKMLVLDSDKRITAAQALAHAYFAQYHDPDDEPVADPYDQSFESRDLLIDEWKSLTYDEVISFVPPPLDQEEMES", "assay": "Inhibition of MAPK14 Kinase Activity", "units": {"IC50": "µM"}}
{"smiles": "NNC(=O)c1cc2c(ccc(=O)n2-c2ccccc2)n1Cc1cccc(Cl)c1", "IC50": "≤ 2"}
{"smiles": "COc1ccc(-n2c(=O)ccc3c2ccn3Cc2ccccc2)cc1", "IC50": "≤ 2"}
{"smiles": "CCOC(=O)c1cc2c(ccc(=O)n2-c2ccccc2)n1Cc1ccc(F)c(Cl)c1", "IC50": "≤ 2"}
{"smiles": "CON(C)C(=O)c1cc2c(ccc(=O)n2-c2ccccc2)n1Cc1cccc(Cl)c1", "IC50": "≤ 2"}
{"smiles": "O=c1ccc2c(ccn2Cc2ccncc2)n1-c1ccccc1", "IC50": "≤ 2"}
{"smiles": "CCOC(=O)c1cc2c(ccc(=O)n2-c2ccccc2)n1Cc1cccc(Cl)c1", "IC50": "≤ 2"}
{"smiles": "O=c1ccc2c(ccn2Cc2cc(Cl)ccc2Cl)n1-c1ccccc1", "IC50": "≤ 2"}
{"smiles": "CCOC(=O)c1cc2c(ccc(=O)n2-c2ccccc2[N+](=O)[O-])n1Cc1cccc(Cl)c1", "IC50": "≤ 2"}
{"smiles": "O=C(c1ccccc1)n1ccc2c1ccc(=O)n2-c1ccccc1", "IC50": "≤ 2"}
{"smiles": "O=C(c1cn(Cc2ccccc2)c2ccc(=O)n(-c3ccccc3)c12)C(F)(F)F", "IC50": "≤ 2"}
{"smiles": "N#Cc1cc2c(ccc(=O)n2-c2ccccc2)n1Cc1cccc(Cl)c1", "IC50": "≤ 2"}
{"smiles": "O=c1ccc2c(ccn2Cc2nc3ccccc3s2)n1-c1ccccc1", "IC50": "≤ 2"}
{"smiles": "O=c1ccc2c(ccn2Cc2ccc(F)cc2F)n1-c1ccccc1", "IC50": "≤ 2"}
{"smiles": "O=c1ccc2c(ccn2Cc2ccc(F)c(F)c2)n1-c1ccccc1", "IC50": "≤ 2"}
{"smiles": "Cc1cccc(Cn2c(C(=O)N3CCC[C@H]3CO)cc3c2ccc(=O)n3-c2ccccc2)c1", "IC50": "≤ 2"}
{"smiles": "O=c1ccc2c(ccn2Cc2ccc(F)cc2)n1-c1ccccc1", "IC50": "≤ 2"}
{"smiles": "NC(=O)c1cc2c(ccc(=O)n2-c2ccccc2)n1Cc1ccc(F)c(Cl)c1", "IC50": "≤ 2"}
{"smiles": "CCOC(=O)c1cc2c(ccc(=O)n2-c2ccc(C)cc2)n1Cc1cccc(Cl)c1", "IC50": "≤ 2"}
{"smiles": "CON(C)C(=O)c1cc2c(ccc(=O)n2-c2ccccc2)n1Cc1ccc(F)c(Cl)c1", "IC50": "≤ 2"}
{"smiles": "Cc1ccccc1Cn1ccc2c1ccc(=O)n2-c1ccccc1", "IC50": "≤ 2"}
{"smiles": "O=c1ccc2c(ccn2Cc2ccc(Cl)s2)n1-c1ccccc1", "IC50": "≤ 2"}
{"smiles": "CON(C)C(=O)c1cc2c(ccc(=O)n2-c2ccccc2)n1Cc1cccc(C)c1", "IC50": "≤ 2"}
{"smiles": "O=c1ccc2c(ccn2Cc2cccc(Cl)c2)n1-c1ccsc1", "IC50": "≤ 2"}
{"smiles": "COc1cccc(Cn2ccc3c2ccc(=O)n3-c2ccccc2)c1", "IC50": "≤ 2"}
{"smiles": "CCOC(=O)c1cc2c(ccc(=O)n2-c2ccccc2)n1Cc1cccc(C)c1", "IC50": "≤ 2"}
{"smiles": "CNC(=O)c1cc2c(ccc(=O)n2-c2ccccc2)n1Cc1cccc(Cl)c1", "IC50": "≤ 2"}
{"smiles": "Cc1cccc(Cn2c(C(N)=O)cc3c2ccc(=O)n3-c2ccccc2)c1", "IC50": "≤ 2"}
{"smiles": "O=c1ccc2c(ccn2Cc2ccccc2)n1-c1ccccc1", "IC50": "≤ 2"}
{"smiles": "NC(=O)c1cc2c(ccc(=O)n2-c2ccccc2)n1Cc1cccc(Cl)c1", "IC50": "≤ 2"}
{"smiles": "Cc1cc(Cn2c(C(N)=O)cc3c2ccc(=O)n3-c2ccccc2)ccc1F", "IC50": "≤ 2"}
{"smiles": "O=c1ccc2c(ccn2Cc2c(Cl)cccc2Cl)n1-c1ccccc1", "IC50": "≤ 2"}
{"smiles": "Cc1cccc(Cn2ccc3c2ccc(=O)n3-c2ccccc2)c1", "IC50": "≤ 2"}
{"smiles": "O=c1ccc2c(cc(S(=O)(=O)N3CCCC3)n2Cc2cccc(Cl)c2)n1-c1ccccc1", "IC50": "≤ 2"}
{"smiles": "O=c1ccc2c(ccn2Cc2ccc(F)c(Cl)c2)n1-c1ccccc1", "IC50": "≤ 2"}
{"smiles": "Cc1ccc(Cn2ccc3c2ccc(=O)n3-c2ccccc2)cc1", "IC50": "≤ 2"}
{"smiles": "O=c1ccc2c(ccn2Cc2ccc(Cl)c(Cl)c2)n1-c1ccccc1", "IC50": "≤ 2"}
{"smiles": "Cc1ccc(-n2c(=O)ccc3c2cc(C(=O)NN)n3Cc2cccc(Cl)c2)cc1", "IC50": "≤ 2"}
{"smiles": "N#Cc1ccc(Cn2ccc3c2ccc(=O)n3-c2ccccc2)cc1", "IC50": "≤ 2"}
{"smiles": "O=C(c1cc2c(ccc(=O)n2-c2ccccc2)n1Cc1cccc(Cl)c1)N1CCCC1", "IC50": "≤ 2"}
{"smiles": "O=c1ccc2c(ccn2Cc2cccnc2)n1-c1ccccc1", "IC50": "≤ 2"}
{"smiles": "O=c1ccc2c(ccn2CCc2ccccc2)n1-c1ccccc1", "IC50": "≤ 2"}
{"smiles": "O=c1ccc2c(ccn2Cc2cccc(Cl)c2)n1-c1ccccc1", "IC50": "≤ 2"}
{"smiles": "Cc1ccc(-n2c(=O)ccc3c2cc(C(N)=O)n3Cc2cccc(Cl)c2)cc1", "IC50": "≤ 2"}
{"smiles": "CCOC(=O)c1cc2c(ccc(=O)n2-c2ccsc2)n1Cc1cccc(Cl)c1", "IC50": "≤ 2"}
{"smiles": "CCOC(=O)c1cc2c(ccc(=O)n2-c2ccc3[nH]ccc3c2)n1Cc1cccc(Cl)c1", "IC50": "≤ 2"}
{"smiles": "N#Cc1cccc(Cn2ccc3c2ccc(=O)n3-c2ccccc2)c1", "IC50": "≤ 2"}
{"smiles": "NC(=O)c1cc2c(ccc(=O)n2-c2ccc3[nH]ccc3c2)n1Cc1cccc(Cl)c1", "IC50": "≤ 2"}
{"smiles": "CN(C)C(=O)c1cc2c(ccc(=O)n2-c2ccccc2)n1Cc1cccc(Cl)c1", "IC50": "≤ 2"}
{"smiles": "CCOC(=O)c1cc2c(ccc(=O)n2-c2ccccc2)n1Cc1ccc(F)c(C)c1", "IC50": "≤ 2"}
{"smiles": "CCOC(=O)c1cc2c(ccc(=O)n2-c2ccccc2)n1Cc1ccccc1", "IC50": "≤ 2"}
{"smiles": "CC(c1ccccc1)n1ccc2c1ccc(=O)n2-c1ccccc1", "note": "(stereo not drawn)", "IC50": "≤ 2"}
{"smiles": "N#Cc1ccccc1Cn1c(C(N)=O)cc2c1ccc(=O)n2-c1ccccc1", "IC50": "≤ 2"}
{"smiles": "O=c1ccc2c(ccn2Cc2ccc(Cl)cc2)n1-c1ccccc1", "IC50": "≤ 2"}
